In the NIST ThermoML archive (doi:10.1021/je050343i) one finds activity coefficient data, which are given here for 24 compounds.

A short description of this series: activity coefficient (dimensionless); of the first substance listed, at infinite dilution; xn = mol fraction of the nth substance listed. As to conditions: Liquid, Chromatography, x1 = 0.

± gives the expanded uncertainty stated by the source.

As for `C=CC=C` [1,3-butadiene] + C=C(C)CCO, the activity coefficient is 2.76 ± 0.19 (249.92 K); 2.69 ± 0.18 (270.04 K); 2.65 ± 0.18 (289.99 K); 2.56 ± 0.17 (309.99 K); 2.45 ± 0.17 (330 K).
Turning to `CC(C)C` [2-methylpropane] + C=CC(C)(C)O, the activity coefficient runs as follows: (249.98 K) 3.56 ± 0.24; (269.95 K) 3.42 ± 0.23; (289.99 K) 3.27 ± 0.22; (309.99 K) 3.06 ± 0.21; (330 K) 2.83 ± 0.19.
For `C=CC` [propene] + C=CC(C)(C)O the same measures were 2.46 ± 0.17, 2.38 ± 0.16, 2.3 ± 0.16, 2.17 ± 0.15 and 2.05 ± 0.14.
On to `C/C=C\C` [(Z)-2-butene] + C=C(C)CCO, for which the activity coefficient (249.95 K) was 3.26 ± 0.22; the activity coefficient (269.95 K) was 3.2 ± 0.22; the activity coefficient (289.9 K) came to 3.08 ± 0.21; the activity coefficient (309.99 K) is 2.9 ± 0.2; the activity coefficient (330 K) is 2.77 ± 0.19.
Consider `C/C=C\C` [(Z)-2-butene] + C=CC(C)(C)O, for which the activity coefficient (250 K) turned out to be 2.55 ± 0.17; the activity coefficient (269.96 K) worked out at 2.48 ± 0.17; the activity coefficient (289.99 K) was found to be 2.36 ± 0.16; the activity coefficient (309.99 K) came to 2.23 ± 0.15; the activity coefficient (330 K) came out at 2.05 ± 0.14.
Turning to `C/C=C/C` [(E)-2-butene] + C=CC(C)(C)O, the activity coefficient runs as follows: (249.98 K) 2.73 ± 0.19; (269.95 K) 2.62 ± 0.18; (289.99 K) 2.51 ± 0.17; (309.99 K) 2.35 ± 0.16; (330 K) 2.2 ± 0.15.
Consider `CCCl` [chloroethane] + C=CC(C)(C)O, for which the activity coefficient (250.01 K) was found to be 2.28 ± 0.16; the activity coefficient (269.96 K) amounted to 2.16 ± 0.15; the activity coefficient (289.99 K) came to 1.96 ± 0.13; the activity coefficient (309.99 K) was 1.69 ± 0.11; the activity coefficient (330 K) stood at 1.56 ± 0.1.
In the case of `CCC` [propane] + C=C(C)CCO, the activity coefficient worked out at 4.36 ± 0.3 (249.92 K); 4.19 ± 0.29 (270.04 K); 4.1 ± 0.28 (289.99 K); 3.86 ± 0.26 (309.99 K); 3.7 ± 0.25 (330 K).
Consider `CCC` [propane] + C=CC(C)(C)O, for which the activity coefficient by setting is: (249.98 K) 3.08 ± 0.21; (269.95 K) 2.97 ± 0.2; (289.99 K) 2.86 ± 0.19; (309.99 K) 2.7 ± 0.18; (330 K) 2.54 ± 0.17.
For `C=CC=C` [1,3-butadiene] + C=CC(C)(C)O, the activity coefficient runs as follows: (249.98 K) 2.43 ± 0.17; (269.95 K) 2.36 ± 0.16; (289.99 K) 2.22 ± 0.15; (309.99 K) 2.05 ± 0.14; (330 K) 1.88 ± 0.13.
Take `CC(C)C` [2-methylpropane] + C=C(C)CCO: the activity coefficient stood at 5.27 ± 0.36 (249.92 K); 4.98 ± 0.34 (270.04 K); 4.73 ± 0.32 (289.99 K); 4.54 ± 0.31 (309.99 K); 4.29 ± 0.29 (330 K).
Regarding `CC(F)F` [1,1-difluoroethane] + C=CC(C)(C)O, the activity coefficient reads like this: (250 K) 4.68 ± 0.32; (269.96 K) 3.99 ± 0.27; (289.99 K) 3.39 ± 0.23; (309.99 K) 2.89 ± 0.2; (330 K) 2.47 ± 0.17.
Turning to `COC` [dimethyl ether] + C=C(C)CCO, the activity coefficient (249.95 K) worked out at 1.28 ± 0.08; the activity coefficient (269.95 K) is 1.23 ± 0.08; the activity coefficient (289.9 K) came out at 1.2 ± 0.08; the activity coefficient (309.99 K) stood at 1.17 ± 0.07; the activity coefficient (330 K) stood at 1.15 ± 0.07.
For the compound `CCCC` [butane] + C=CC(C)(C)O, the activity coefficient is, setting by setting: (249.98 K) 3.3 ± 0.22; (269.95 K) 3.22 ± 0.22; (289.99 K) 3.08 ± 0.21; (309.99 K) 2.87 ± 0.2; (330 K) 2.65 ± 0.18.
Take `CCCl` [chloroethane] + C=C(C)CCO: the activity coefficient (249.94 K) is 2.49 ± 0.17; the activity coefficient (269.95 K) worked out at 2.35 ± 0.16; the activity coefficient (289.9 K) worked out at 2.32 ± 0.16; the activity coefficient (309.99 K) was determined as 2.23 ± 0.15; the activity coefficient (330 K) was 1.99 ± 0.14.
As to `CCCC` [butane] + C=C(C)CCO, the activity coefficient was determined as 4.89 ± 0.33 (249.92 K); 4.61 ± 0.31 (270.04 K); 4.41 ± 0.3 (289.99 K); 4.18 ± 0.28 (309.99 K); 3.99 ± 0.27 (330 K).
For `CC(F)F` [1,1-difluoroethane] + C=C(C)CCO, the activity coefficient (249.95 K) stood at 4.94 ± 0.34; the activity coefficient (269.95 K) was 4.53 ± 0.31; the activity coefficient (289.9 K) is 4.12 ± 0.28; the activity coefficient (309.99 K) was found to be 3.74 ± 0.25; the activity coefficient (330 K) is 3.5 ± 0.24.
For `C=C(C)C` [2-methylpropene] + C=CC(C)(C)O, the activity coefficient (249.98 K) was determined as 2.72 ± 0.19; the activity coefficient (269.95 K) was 2.61 ± 0.18; the activity coefficient (289.99 K) is 2.47 ± 0.17; the activity coefficient (309.99 K) was 2.31 ± 0.16; the activity coefficient (330 K) came to 2.15 ± 0.15.
Taken in the same sequence, the figures for `C=CCC` [1-butene] + C=CC(C)(C)O were 2.74 ± 0.19, 2.65 ± 0.18, 2.52 ± 0.17, 2.37 ± 0.16 and 2.2 ± 0.15.
On to `C/C=C/C` [(E)-2-butene] + C=C(C)CCO, for which the activity coefficient is, setting by setting: (249.92 K) 3.55 ± 0.24; (270.04 K) 3.42 ± 0.23; (289.99 K) 3.35 ± 0.23; (309.99 K) 3.27 ± 0.22; (330 K) 3.12 ± 0.21.
As to `C=CC` [propene] + C=C(C)CCO, the activity coefficient (249.92 K) came to 3.07 ± 0.21; the activity coefficient (270.04 K) worked out at 3.04 ± 0.21; the activity coefficient (289.99 K) is 2.99 ± 0.2; the activity coefficient (309.99 K) amounted to 2.92 ± 0.2; the activity coefficient (330 K) was 2.8 ± 0.19.
For the compound `COC` [dimethyl ether] + C=CC(C)(C)O, the activity coefficient runs as follows: (250.01 K) 0.62 ± 0.04; (269.96 K) 0.67 ± 0.05; (289.99 K) 0.7 ± 0.05; (309.99 K) 0.72 ± 0.05; (330 K) 0.74 ± 0.05.
With `C=C(C)C` [2-methylpropene] + C=C(C)CCO, the activity coefficient is 3.49 ± 0.24 (249.92 K); 3.41 ± 0.23 (270.04 K); 3.32 ± 0.23 (289.99 K); 3.21 ± 0.22 (309.99 K); 3.04 ± 0.21 (330 K).
`C=CCC` [1-butene] + C=C(C)CCO: the activity coefficient (249.92 K) was 3.57 ± 0.24; the activity coefficient (270.04 K) worked out at 3.47 ± 0.24; the activity coefficient (289.99 K) was 3.4 ± 0.23; the activity coefficient (309.99 K) turned out to be 3.28 ± 0.22; the activity coefficient (330 K) was 3.13 ± 0.21.
